pIC50: −log10 of the molar value.
System: 171881-019-R-J1-PDC multicell spheroid viability
Test: Anticancer human tumor 171881-019-R-J1-PDC patient-derived invasive breast carcinoma cell line growth inhibition [IpAb]
Conditions: for pIC50: curve of first compound; for viability, T/C: stronger effect = lower value; active means viability on the fitted dose curve at most 10% of control; inactive means the rest
Procedure, shortened: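 Spheroids of 60% malignant cells, 25% HUVEC and 15% MSC were exposed to targeted agents combined with ipatasertib or abemaciclib. Doses started at or near clinical Cmax (10 microM when unknown) and fell in half-log steps.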

[1] = second compound 0.1 µM, first compound 0.0316 µM
[2] = second compound 0.1 µM, first compound 0.1 µM
[3] = second compound 0.1 µM, first compound 0.316 µM
[4] = second compound 0.1 µM, first compound 1 µM
[5] = second compound 0.1 µM, first compound 3.16 µM
[6] = second compound 0.1 µM, first compound 10 µM
[7] = second compound 0.316 µM, first compound 0.0316 µM
[8] = second compound 0.316 µM, first compound 0.1 µM
[9] = second compound 0.316 µM, first compound 0.316 µM
[10] = second compound 0.316 µM, first compound 1 µM
[11] = second compound 0.316 µM, first compound 3.16 µM
[12] = second compound 0.316 µM, first compound 10 µM
[13] = second compound 1 µM, first compound 0.0316 µM
[14] = second compound 1 µM, first compound 0.1 µM
[15] = second compound 1 µM, first compound 0.316 µM
[16] = second compound 1 µM, first compound 1 µM
[17] = second compound 1 µM, first compound 3.16 µM
[18] = second compound 1 µM, first compound 10 µM
[19] = second compound 3.16 µM, first compound 0.0316 µM
[20] = second compound 3.16 µM, first compound 0.1 µM
[21] = second compound 10 µM, first compound 0.0316 µM
[22] = second compound 10 µM, first compound 0.1 µM
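Further: spheroids exposed to the agents for seven days before readout.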

Cn1ncc(Cl)c1-c1cc(C(=O)NC(CN)Cc2cccc(F)c2)sc1Cl (stereo not given) + CC(C)NCC(C(=O)N1CCN(c2ncnc3c2C(C)CC3O)CC1)c1ccc(Cl)cc1
6.79: pIC50 (second compound 0.1 µM)
inactive: viability, T/C [1] 86.5% | viability, T/C [2] 67.3% | viability, T/C [3] 25% | viability, T/C [7] 59.8% | viability, T/C [8] 45.3% | viability, T/C [9] 22.6% | viability, T/C [13] 23.8% | viability, T/C [14] 20.8% | viability, T/C [15] 13.8% | viability, T/C [19] 10.8% | viability, T/C [20] 10.5%
> 7.50: pIC50 (second compound 1 µM) | pIC50 (second compound 3.16 µM) | pIC50 (second compound 10 µM)
7.18: pIC50 (second compound 0.316 µM)
active: viability, T/C [4] 13.1% | viability, T/C [5] 4.31% | viability, T/C [6] 0.42% | viability, T/C [10] 10.6% | viability, T/C [11] 3.79% | viability, T/C [12] 0.18% | viability, T/C [16] 9.71% | viability, T/C [17] 3.91% | viability, T/C [18] 0.14% | viability, T/C (second compound 3.16 µM, first compound 0.316 µM) 9.15% | viability, T/C (second compound 3.16 µM, first compound 1 µM) 7.27% | viability, T/C (second compound 3.16 µM, first compound 3.16 µM) 3.38% | viability, T/C (second compound 3.16 µM, first compound 10 µM) 0.25% | viability, T/C [21] 5.35% | viability, T/C [22] 5.51% | viability, T/C (second compound 10 µM, first compound 0.316 µM) 5.12% | viability, T/C (second compound 10 µM, first compound 1 µM) 4.62% | viability, T/C (second compound 10 µM, first compound 3.16 µM) 2.7% | viability, T/C (second compound 10 µM, first compound 10 µM) 0.21%

Cn1ncnc1[C@H]1c2n[nH]c(=O)c3cc(F)cc(c23)N[C@@H]1c1ccc(F)cc1 + CC(C)NCC(C(=O)N1CCN(c2ncnc3c2C(C)CC3O)CC1)c1ccc(Cl)cc1
< 7.00: pIC50 (second compound 0.1 µM) | pIC50 (second compound 0.316 µM)
> 9.50: pIC50 (second compound 1 µM) | pIC50 (second compound 3.16 µM) | pIC50 (second compound 10 µM)
inactive: viability, T/C (second compound 0.1 µM, first compound 0.000316 µM) 102% | viability, T/C (second compound 0.1 µM, first compound 0.001 µM) 114% | viability, T/C (second compound 0.1 µM, first compound 0.00316 µM) 121% | viability, T/C (second compound 0.1 µM, first compound 0.01 µM) 108% | viability, T/C [1] 108% | viability, T/C [2] 101% | viability, T/C (second compound 0.316 µM, first compound 0.000316 µM) 74.8% | viability, T/C (second compound 0.316 µM, first compound 0.001 µM) 75.1% | viability, T/C (second compound 0.316 µM, first compound 0.00316 µM) 75.6% | viability, T/C (second compound 0.316 µM, first compound 0.01 µM) 72.6% | viability, T/C [7] 65.8% | viability, T/C [8] 60.8% | viability, T/C (second compound 1 µM, first compound 0.000316 µM) 27.4% | viability, T/C (second compound 1 µM, first compound 0.001 µM) 24.4% | viability, T/C (second compound 1 µM, first compound 0.00316 µM) 20.7% | viability, T/C (second compound 1 µM, first compound 0.01 µM) 24.6% | viability, T/C [13] 20.3% | viability, T/C [14] 17.1% | viability, T/C (second compound 3.16 µM, first compound 0.000316 µM) 10.7%
active: viability, T/C (second compound 3.16 µM, first compound 0.001 µM) 12.5% | viability, T/C (second compound 3.16 µM, first compound 0.00316 µM) 8.98% | viability, T/C (second compound 3.16 µM, first compound 0.01 µM) 10% | viability, T/C [19] 8.89% | viability, T/C [20] 7.64% | viability, T/C (second compound 10 µM, first compound 0.000316 µM) 5.76% | viability, T/C (second compound 10 µM, first compound 0.001 µM) 5.36% | viability, T/C (second compound 10 µM, first compound 0.00316 µM) 5.17% | viability, T/C (second compound 10 µM, first compound 0.01 µM) 5.3% | viability, T/C [21] 4.77% | viability, T/C [22] 4.29%

C=CCn1c(=O)c2cnc(Nc3ccc(N4CCN(C)CC4)cc3)nc2n1-c1cccc(C(C)(C)O)n1 + CCN1CCN(Cc2ccc(Nc3ncc(F)c(-c4cc(F)c5nc(C)n(C(C)C)c5c4)n3)nc2)CC1
6.00: pIC50 (second compound 0.0316 µM)
< 5.00: pIC50 (second compound 0.316 µM) | pIC50 (second compound 1 µM)
6.06: pIC50 (second compound 0.01 µM)
5.78: pIC50 (second compound 0.1 µM)
inactive: viability, T/C (second compound 0.01 µM, first compound 0.0316 µM) 88.8% | viability, T/C (second compound 0.01 µM, first compound 0.1 µM) 93.3% | viability, T/C (second compound 0.01 µM, first compound 0.316 µM) 109% | viability, T/C (second compound 0.01 µM, first compound 1 µM) 43.2% | viability, T/C (second compound 0.01 µM, first compound 3.16 µM) 30.3% | viability, T/C (second compound 0.01 µM, first compound 10 µM) 30.3% | viability, T/C (second compound 0.0316 µM, first compound 0.0316 µM) 116% | viability, T/C (second compound 0.0316 µM, first compound 0.1 µM) 97.3% | viability, T/C (second compound 0.0316 µM, first compound 0.316 µM) 119% | viability, T/C (second compound 0.0316 µM, first compound 1 µM) 50% | viability, T/C (second compound 0.0316 µM, first compound 3.16 µM) 35% | viability, T/C (second compound 0.0316 µM, first compound 10 µM) 32% | viability, T/C [1] 110% | viability, T/C [2] 105% | viability, T/C [3] 126% | viability, T/C [4] 57.9% | viability, T/C [5] 42.7% | viability, T/C [6] 37.2% | viability, T/C [7] 131% | viability, T/C [8] 137% | viability, T/C [9] 134% | viability, T/C [10] 83.1% | viability, T/C [11] 57.1% | viability, T/C [12] 47.7% | viability, T/C [13] 150% | viability, T/C [14] 150% | viability, T/C [15] 149% | viability, T/C [16] 98.8% | viability, T/C [17] 78.7% | viability, T/C [18] 69.8%

Cn1cnc2c(F)c(Nc3ccc(Br)cc3Cl)c(C(=O)NOCCO)cc21 + CCN1CCN(Cc2ccc(Nc3ncc(F)c(-c4cc(F)c5nc(C)n(C(C)C)c5c4)n3)nc2)CC1
5.94: pIC50 (second compound 0.1 µM)
5.90: pIC50 (second compound 0.01 µM)
5.85: pIC50 (second compound 0.316 µM)
5.88: pIC50 (second compound 1 µM)
5.95: pIC50 (second compound 0.0316 µM)
inactive: viability, T/C (second compound 0.01 µM, first compound 0.00949 µM) 97.1% | viability, T/C (second compound 0.01 µM, first compound 0.03 µM) 114% | viability, T/C (second compound 0.01 µM, first compound 0.0949 µM) 112% | viability, T/C (second compound 0.01 µM, first compound 0.3 µM) 114% | viability, T/C (second compound 0.01 µM, first compound 0.949 µM) 61.3% | viability, T/C (second compound 0.01 µM, first compound 3 µM) 13.9% | viability, T/C (second compound 0.0316 µM, first compound 0.00949 µM) 121% | viability, T/C (second compound 0.0316 µM, first compound 0.03 µM) 120% | viability, T/C (second compound 0.0316 µM, first compound 0.0949 µM) 130% | viability, T/C (second compound 0.0316 µM, first compound 0.3 µM) 109% | viability, T/C (second compound 0.0316 µM, first compound 0.949 µM) 56.8% | viability, T/C (second compound 0.0316 µM, first compound 3 µM) 14.6% | viability, T/C (second compound 0.1 µM, first compound 0.00949 µM) 112% | viability, T/C (second compound 0.1 µM, first compound 0.03 µM) 138% | viability, T/C (second compound 0.1 µM, first compound 0.0949 µM) 126% | viability, T/C (second compound 0.1 µM, first compound 0.3 µM) 99.7% | viability, T/C (second compound 0.1 µM, first compound 0.949 µM) 58.3% | viability, T/C (second compound 0.1 µM, first compound 3 µM) 15.9% | viability, T/C (second compound 0.316 µM, first compound 0.00949 µM) 142% | viability, T/C (second compound 0.316 µM, first compound 0.03 µM) 142% | viability, T/C (second compound 0.316 µM, first compound 0.0949 µM) 136% | viability, T/C (second compound 0.316 µM, first compound 0.3 µM) 116% | viability, T/C (second compound 0.316 µM, first compound 0.949 µM) 63.4% | viability, T/C (second compound 0.316 µM, first compound 3 µM) 23.4% | viability, T/C (second compound 1 µM, first compound 0.00949 µM) 149% | viability, T/C (second compound 1 µM, first compound 0.03 µM) 142% | viability, T/C (second compound 1 µM, first compound 0.0949 µM) 138% | viability, T/C (second compound 1 µM, first compound 0.3 µM) 106% | viability, T/C (second compound 1 µM, first compound 0.949 µM) 59.5% | viability, T/C (second compound 1 µM, first compound 3 µM) 25.8%

Source: PubChem BioAssay AID2060342 (Molecular Pharmacology Branch, DTP, NCI, 2025)
